Test [1] has as its target pfDHODH (Plasmodium falciparum (isolate 3D7), UniProt Q08210). Nature of the test: DHODH chromogen reduction (DCIP) assay, pfDHODH. The format is biochemical, P. falciparum. The text has this:
Type 2 DHODH activity was monitored with either the direct assay measuring the formation of orotate or via a chromogen reduction assay using DCIP. Although the extinction coefficient and absorption wavelength are preferable for the chromogen reduction assay, the inorganic electron acceptor DCIP can be utilized by DHODH as the final electron acceptor in lieu of CoQn when the endogenous substrate is at a low concentration. As such, the direct assay was used to measure the binding affinity of pfDHODH to CoQD and L-DHO. The enzymatic reaction was performed by varying the L-DHO concentration (1-400 μM) or CoQD concentration (1-200 μM) while keeping the other substrate constant and in excess.
Substrate specificity and enzyme inhibition data was analyzed with GraphPad Prism Version 4 for Windows (GraphPad Software). Kinetic constants were calculated by non-linear regression fitting of the data to the Michaelis-Menten equation [36]. IC50 values were determined by non-linear regression fitting of the data to Equation 1: […]

For test [2], the system named is P. falciparum Dd2. Nature of the test: Inhibition of in vitro P. falciparum culture, [3H]-hypoxanthine uptake, Dd2. The conditions noted are these: read-out: Dd2 EC50. The format is cell-based. The procedure: (§1) P. falciparum strains D10, 3D7, HB3, and Dd2 were obtained from the Malaria Research and Reference Reagent Resource Center (Manassas, Va.). The parasite strains were maintained in vitro by method of Trager and Jensen. The inhibition of P. falciparum growth in the presence of drug was assessed by the relative reduction of [^3H]-hypoxanthine uptake as previously described. Inhibition data were fitted to Equation 1 using non-linear regression analysis except that the relative velocity of parasite growth was substituted for the rate of product formation.

Test [3] has as its system P. falciparum 3D7. The experiment in a line: Inhibition of in vitro P. falciparum culture, [3H]-hypoxanthine uptake, 3D7. The class given is cell-based. Conditions: read-out: 3D7 EC50. The procedure:
as §1

The mark [4] stands for this setting: Table 2b, read-out: pfDHODH IC50.
[5] abbreviates: Plasmodium falciparum, DD2, Table 2b.
Where [6] appears, read: Plasmodium falciparum, 3D7, Table 2b.

Where two headings read alike, the source gives them in different places.

pfDHODH, sequence (Q08210 159-565 limits assumed): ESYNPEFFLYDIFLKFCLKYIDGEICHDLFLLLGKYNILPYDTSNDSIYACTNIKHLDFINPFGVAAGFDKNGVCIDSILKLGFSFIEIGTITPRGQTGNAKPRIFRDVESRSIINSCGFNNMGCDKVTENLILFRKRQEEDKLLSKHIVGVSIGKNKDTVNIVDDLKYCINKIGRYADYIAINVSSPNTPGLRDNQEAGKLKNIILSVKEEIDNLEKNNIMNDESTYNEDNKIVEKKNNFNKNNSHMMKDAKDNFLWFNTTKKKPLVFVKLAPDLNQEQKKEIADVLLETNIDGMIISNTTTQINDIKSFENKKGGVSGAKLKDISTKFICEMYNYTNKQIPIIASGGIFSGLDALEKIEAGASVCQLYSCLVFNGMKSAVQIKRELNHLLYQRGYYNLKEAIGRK

Consider `CCCC/C(=N/O)c1ccc(-n2cnc3ccccc32)s1` [Compound 87, 1-[5-(1H-benzimidazol-1-yl)-2-thienyl]pentan-1-one oxime], for which the IC50 in test [1] (setting [4]) is over 30 µM. Also, the EC50 in test [2] (setting [5]) was determined as 10 µM; in test [3] (setting [6]), 40 µM.

As for `Cc1nc2cccnc2n1-c1ccc(C(=O)NC2CC2)s1` [Compound 72], in test [1] (setting [4]), the IC50 was 1.12 µM. Moreover, the figures for the EC50 in test [2] (setting [5]) and in test [3] (setting [6]) were 0.52 µM and 0.364 µM, respectively.

On to `Cc1nc2cc3ccccc3cc2n1-c1ccc(C(=O)NC2CC2)s1` [Compound 93], for which, in test [1] (setting [4]), the IC50 stood at 0.035 µM. The EC50 in test [2] (setting [5]) came to 0.019 µM; in test [3] (setting [6]), 0.017 µM.

Regarding `O=C(NC1CC1)c1ccc(-n2c(O)nc3ccccc32)s1` [Compound 45], the IC50 in test [1] (setting [4]) was over 30 µM. The EC50 in test [2] (setting [5]) and in test [3] (setting [6]) was 5 µM each time.

With `Cn1c(-c2ccc(C(=O)NC3CC3)s2)nc2ccccc21` [Compound 79], the IC50 in test [1] (setting [4]) was over 30 µM. Also, the EC50 in test [2] (setting [5]) and in test [3] (setting [6]) was over 5 µM throughout.

Consider `CCCC/C(=N\OC)c1ccc(-n2cnc3ccccc32)s1` [Compound 89, 1-[5-(1H-benzimidazol-1-yl)-2-thienyl]pentan-1-one O-methyloxime], for which the half-inhibitory concentration (IC50) in test [1] (setting [4]) is over 30 µM. The EC50 in test [2] (setting [5]) is 4.4 µM; in test [3] (setting [6]), 5.3 µM.

As for `CN(C)C(=O)c1ccc(-n2cnc3ccccc32)s1` [Compound 27], the IC50 in test [1] (setting [4]) was over 30 µM. Moreover, the EC50 in test [2] (setting [5]) and in test [3] (setting [6]) was over 40 µM throughout.

As to `Cc1nc2cnccc2n1-c1ccc(C(=O)NC2CC2)s1` [Compound 71], in test [1] (setting [4]), the IC50 amounted to 3.08 µM. Moreover, the EC50 in test [2] (setting [5]) amounted to 6.3 µM; in test [3] (setting [6]), 3.7 µM.

For `CCNC(=O)c1cccc(-n2c(C)nc3cc(F)ccc32)c1` [Compound 92], in test [1] (setting [4]), the IC50 is over 30 µM. For the same compound, the concentration giving a half-maximal response (EC50) in test [2] (setting [5]) and in test [3] (setting [6]) was over 1 µM in each case.

Turning to `CCCNC(=O)c1ccc(N2CCCC2)s1` [Compound 14, N-propyl-5-(pyrrolidin-1-yl)thiophene-2-carboxamide], the IC50 in test [1] (setting [4]) was over 250 µM. The EC50 in test [2] (setting [5]) and in test [3] (setting [6]) was over 10 µM each time.

Consider `Cc1nc(-c2ccc(Cl)cc2)cn1-c1ccc(C(=O)NC2CC2)s1` [Compound 96], for which the IC50 in test [1] (setting [4]) is 0.252 µM.

`Cc1nc2ccccc2n1-c1cc(C(=O)NC2CC2)cs1` [Compound 78, N-cyclopropyl-5-(2-methyl-1H-benzo[d]imidazol-1-yl)thiophene-3-carboxamide]: in test [1] (setting [4]), the IC50 was determined as 1.7 µM. For the same compound, the concentration giving a half-maximal response (EC50) in test [2] (setting [5]) amounted to 2.05 µM; in test [3] (setting [6]) it was 1.02 µM.

For `CC[C@@H](C)NC(=O)c1ccc(-n2cnc3ccccc32)s1` [Compound 47], the IC50 in test [1] (setting [4]) is over 30 µM. For the same compound, the EC50 in test [2] (setting [5]) and in test [3] (setting [6]) was over 5 µM throughout.

For `CCNC(=O)c1ccc(-n2c(C)nc3cc(F)ccc32)cc1` [Compound 91], the IC50 in test [1] (setting [4]) was determined as 2.87 µM. The EC50 in test [2] (setting [5]) and in test [3] (setting [6]) was over 0.5 µM throughout.

For the compound `Cc1nc2ccc(-c3ccccc3)cc2n1-c1ccc(C(=O)NC2CC2)s1` [Compound 98], the IC50 in test [1] (setting [4]) came to 0.089 µM.

With `CCCNC(=O)c1ccc(N2CCSc3ccccc32)s1` [Compound 18, 5-(2H-benzo[b][1,4]thiazin-4(3H)-yl)-N-propylthiophene-2-carboxamide], the IC50 in test [1] (setting [4]) worked out at 9.2 µM. For the same compound, the EC50 in test [2] (setting [5]) and in test [3] (setting [6]) was over 10 µM throughout.

As to `CCCC/C(=N\O)c1ccc(-n2cnc3ccccc32)s1` [Compound 86, 1-[5-(1H-benzimidazol-1-yl)-2-thienyl]pentan-1-one oxime], the IC50 in test [1] (setting [4]) is over 30 µM. Further, the values for the EC50 in test [2] (setting [5]) and in test [3] (setting [6]) were 20 µM and 10 µM, respectively.

In the case of `CCCN(C)C(=O)c1ccc(-n2cnc3ccccc32)s1` [Compound 48], the IC50 in test [1] (setting [4]) is over 30 µM. Moreover, the EC50 in test [2] (setting [5]) and in test [3] (setting [6]) was over 5 µM each time.

In the case of `c1ccc2[nH]c(-c3ccc(-c4nc5ccccc5[nH]4)s3)nc2c1` [Compound 81], the IC50 in test [1] (setting [4]) was over 30 µM. Further, the EC50 in test [2] (setting [5]) is over 5 µM; in test [3] (setting [6]), 5 µM.

For the compound `O=C(c1ccc(-n2cnc3ccccc32)s1)N1CCCC1` [Compound 26], the IC50 in test [1] (setting [4]) was over 30 µM. Further, the EC50 is 20 µM in test [2] (setting [5]) and 10 µM in test [3] (setting [6]).

As to `CCCNC(=O)c1ccc(N2CCc3ccccc32)s1` [Compound 20, 5-(indolin-1-yl)-N-propylthiophene-2-carboxamide], the IC50 in test [1] (setting [4]) was over 30 µM. Further, the EC50 in test [2] (setting [5]) and in test [3] (setting [6]) was over 10 µM throughout.

In the case of `Cc1nc2cc(OC(C)C)ccc2n1-c1ccc(C(=O)NC2CC2)s1` [Compound 94], the IC50 in test [1] (setting [4]) turned out to be 0.121 µM. Besides, the EC50 in test [2] (setting [5]) came out at 0.061 µM; in test [3] (setting [6]) it was 0.051 µM.

In the case of `Cc1nc2cc(-c3ccccc3)ccc2n1-c1ccc(C(=O)NC2CC2)s1` [Compound 97], the IC50 in test [1] (setting [4]) is 0.178 µM.

Take `CCCCNC(=O)c1ccc(-n2cnc3ccccc32)s1` [Compound 29]: the IC50 in test [1] (setting [4]) was 28.6 µM. The EC50 in test [2] (setting [5]) came out at 7.3 µM; in test [3] (setting [6]), 20 µM.

Regarding `c1ccc2oc(-c3ccc(-c4nc5ccccc5o4)s3)nc2c1` [Compound 83], in test [1] (setting [4]), the IC50 is over 30 µM. Besides, the EC50 in test [2] (setting [5]) and in test [3] (setting [6]) was over 5 µM each time.

In the case of `CCCNC(=O)c1ccc(N2Cc3cccc(OC)c3Oc3ncccc32)s1` [Compound 22, 5-(10-methoxybenzo[f]pyrido[2,3-b][1,4]oxazepin-5(6H)-yl)-N-propylthiophene-2-carboxamide], the IC50 in test [1] (setting [4]) is over 30 µM. For the same compound, the half-maximal effective concentration (EC50) in test [2] (setting [5]) and in test [3] (setting [6]) was over 10 µM each time.

Take `Cc1nc2ncccc2n1-c1ccc(C(=O)NC2CC2)s1` [Compound 73]: in test [1] (setting [4]), the half-maximal inhibitory concentration (IC50) was 4.77 µM. For the same compound, the EC50 is 2.4 µM in test [2] (setting [5]) and 1.3 µM in test [3] (setting [6]).

As for `O=C(c1ccc(-n2cnc3ccccc32)s1)N1CCC1` [Compound 46], the half-inhibitory concentration (IC50) in test [1] (setting [4]) came out at 16.5 µM. In addition, the EC50 in test [2] (setting [5]) and in test [3] (setting [6]) was 5 µM in each case.

Take `CCCNC(=O)c1ccc(-n2ccnc2)s1` [Compound 15, 5-(1H-imidazol-1-yl)-N-propylthiophene-2-carboxamide]: the IC50 in test [1] (setting [4]) turned out to be 165 µM. Also, the EC50 in test [2] (setting [5]) and in test [3] (setting [6]) was over 10 µM throughout.

Regarding `Cn1c(-c2ccc(-c3nc4ccccc4n3C)s2)nc2ccccc21` [Compound 82], in test [1] (setting [4]), the IC50 is over 30 µM. Moreover, the half-maximal effective concentration (EC50) in test [2] (setting [5]) and in test [3] (setting [6]) was over 5 µM in each case.

Regarding `Cc1nc2cc(Cl)ccc2n1-c1ccc(C(=O)NC2CC2)s1` [Compound 41], in test [1] (pfDHODH IC50, Table 2b), the 50% inhibitory concentration (IC50) amounted to 0.04 µM. Moreover, the 50% effective concentration (EC50) in test [2] (Table 2b) was 0.083 µM; in test [3] (Table 2b) it was 0.067 µM.

On to `O=C(NC1CC1)c1ccc(-n2ncc3ccccc32)s1` [Compound 100, N-cyclopropyl-5-(1H-indazol-1-yl)thiophene-2-carboxamide], for which the IC50 in test [1] (setting [4]) was over 30 µM.

As to `CCCNC(=O)c1ccc(-n2cnc3cncnc32)s1` [Compound 16, N-propyl-5-(9H-purin-9-yl)thiophene-2-carboxamide], the half-maximal effective concentration (EC50) in test [2] (setting [5]) and in test [3] (setting [6]) was over 10 µM each time.

On to `Cc1nc2cc(F)c(F)cc2n1-c1ccc(C(=O)NC2CC2)s1` [Compound 95], for which the IC50 in test [1] (setting [4]) is 0.105 µM.

On to `O=C(NC1CC1)c1ccc(-n2nnc3ccccc32)s1` [Compound 99, 5-(1H-benzo[d][1,2,3]triazol-1-yl)-N-cyclopropylthiophene-2-carboxamide], for which the IC50 in test [1] (setting [4]) was found to be 28 µM.

Usually IC50 stands for the concentration that inhibits the measured activity by half. For orientation: EC50 means the concentration at which the effect is half-maximal.
